Measured values reported in US7842856B2, “Herbicide resistance gene, compositions and methods” (The Board of Trustees of the University of Illinois, priority 2005, dated 2010).

Columns and labels:
[1] = system: Arabidopsis T1 seeds, PPX2L Resistant plasmid; experiment: T1 seed germination on herbicide-containing medium, PPX2L Resistant plasmid; format: in vivo, Arabidopsis thaliana; details: for Number of Germinated Seedlings on Imazethapyr: approximately 1000 seeds
Method: (§1) Reverse transcription PCR (RT-PCR) products from resistant and sensitive biotypes were used as template for cloning the resistant and sensitive genes through PCR amplifications. These amplifications were performed using the ligation independent cloning (LIC) adapted oligonucleotide primers specific to PPX2L, P1 and P2, and cloned into the LIC site of a plant transformation vector, using techniques known to those skilled in the art. These primers used in these experiments were as follows: P1, […], SEQ ID NO:49; P2, […], SEQ ID NO:50; P3, […], SEQ ID NO:51; P4, […], SEQ ID NO:52; P5, […], SEQ ID NO:53; and P6, […], SEQ ID NO:54. These plant transformation vectors contained an imidazolinone tolerant Arabidopsis AHAS large subunit gene under the control of the actin promoter and octopine synthase terminator, which allowed selection on Pursuit (imazethapyr) for all transformants, especially for selection of lactofen […] transformants. For expression of the resistant and sensitive genes in Arabidopsis, the coding sequences for each resistant or sensitive gene were inserted after the parsley ubiquitin promoter and before the nopaline synthase terminator. Several clones each of susceptible and resistant PPX2L were obtained from different biotype isolates and each was sequenced.
(§2) Three vector plasmids were constructed: VC-MBW101-1, containing the susceptible version of the PPX2L gene (SEQ ID NO:47); VC-MBW102-1, containing the resistant version of the PPX2L gene (SEQ ID NO:25); and VC-MBW103-1, containing the SRS version of the PPX2L gene (SEQ ID NO:45); All three of these plasmids were transformed into Agrobacterium tumefaciens. as follows:
(§3) For the transformation, 6-week-old Arabidopsis plants, which had just started flowering were immersed for 10 seconds into the above-described agrobacterial suspension which had previously been treated with 10 μl Silwett L77 (Crompton S. A., Osi Specialties, CH). The method is described in Clough and Bent. 1998. Plant J. 16:735-743.
(§4) These T1 generation seeds, which represented a collection of a few transformed seeds in a population of untransformed seeds, were sterilized by liquid sterilization (rinsing in a solution of 400 mL of ddH2O+100 mL of bleach+250 uL of 20% SDS, followed by rinsing in sterile distilled water).
(§5) These T1 seeds were put into 0.8% agarose and plated onto MS media with 1% sucrose, Cefotaxmine (500 ug/mL) and benomyl (2 ug/mL). For selection of transformants, these contained either 100 nM Pursuit (imazethapyr), 70 nM Cobra (lactofen) or 125 nM Cobra. Arabidopsis ecotype Columbia-0 (Co10) was also plated as a control on all types of plates and the imidazolinone tolerant mutant csr1-2 was plated on Pursuit plates as a positive control. The seeds were stratified on the plates for three days at 4° C.
(§6) The plates were then incubated in a Percival Scientific (Perry, Iowa) growth chamber at 21-22° C. and 15 hours of light for six days and scored for viable seedlings on the selective plates.
(§7) The numbers of seeds were the raw counts of actual seeds on the selection plates. The numbers of seedlings were the number of green seedlings found on each plate, indicative of resistance to the selective agent (lactofen or imazethapyr). If there were no seedlings, there were no resistant plants. Only the “resistant” forms of PPX2L conferred lactofen tolerance, confirming that the isolated PPX2L coding sequence from the herbicide resistant waterhemp was sufficient to confer the PPO-inhibiting herbicide resistance phenotype on transgenic plants into which the plant expressible sequence was introduced. Plants obtained from the imazethapyr selection indicated the presence of transformed seeds with the sensitive form of PPX2L. Without wishing to be bound by any particular theory, the single seedling on transformation set 5 is believed to have been a stray resistant transformant.

[2] = system: Arabidopsis T1 seeds, PPX2L "SRS" plasmid; experiment: T1 seed germination on herbicide-containing medium, PPX2L SRS plasmid; format: in vivo, Arabidopsis thaliana; details: for Number of Germinated Seedlings on Imazethapyr: approximately 1000 seeds
Method: as §1
In addition, a chimeric “SRS” gene (see SEQ ID NO:45), which has the 5′ end of the susceptible coding sequence up to the unique XhoI site, the internal XhoI to DraIII fragment of the resistant coding sequence containing the resistance mutation, and the 3′ end of the susceptible from the unique DraIII site to the stop codon, was produced by amplifying sensitive RT-PCR template with P1 and P3 as well as with P6 and P2. Resistant template was also amplified with P4 and P5. These amplicons were digested with XhoI and DraIII and purified, then ligated. The ligation reaction was cloned into the LIC site of the plant transformation vector, as above.
as §2, §3, §4, §5, §6
The numbers of seeds were the raw counts of actual seeds on the selection plates. The numbers of seedlings were the number of green seedlings found on each plate, indicative of resistance to the selective agent (lactofen or imazethapyr). If there were no seedlings, there were no resistant plants. […]

[3] = system: Arabidopsis T1 seeds, PPX2L Susceptible plasmid; experiment: T1 seed germination on herbicide-containing medium, PPX2L Susceptible plasmid; format: in vivo, Arabidopsis thaliana; details: for Number of Germinated Seedlings on Imazethapyr: approximately 1000 seeds
Method: as §1, §2, §3, §4, §5, §6, §7

[4] = system: Arabidopsis Columbia-0 (untransformed control); experiment: Seed germination on herbicide-containing medium, untransformed control; format: in vivo, Arabidopsis thaliana
Method: as §5, §6, §7

[5] = system: A. tuberculatus S (susceptible) parent; experiment: Herbicide dose-response on whole plants, S parent; format: in vivo, Amaranthus tuberculatus (waterhemp); details: S line

CCOC(=O)C(C)OC(=O)c1cc(Oc2ccc(C(F)(F)F)cc2Cl)ccc1[N+](=O)[O-] (racemic) [Lactofen, (±)-2-ethoxy-1-methyl-2-oxoethyl 5-{2-chloro-4-(trifluoromethyl)phenoxy}-2-nitrobenzoate]
Calculated Number of Germinated Seedlings per 1000 Seeds for both rates of Lactofen ([1]; transformation set 1): 7 | Number of Germinated Seedlings on 125 nM Lactofen ([1]; transformation set 1, 560 seeds plated): 4 | Number of Germinated Seedlings on 70 nM lactofen ([1]; transformation set 1, 640 seeds plated): 4 | Calculated Number of Germinated Seedlings per 1000 Seeds for both rates of Lactofen ([1]; transformation set 2): 3 | Number of Germinated Seedlings on 125 nM Lactofen ([1]; transformation set 2, 1152 seeds plated): 4 | Number of Germinated Seedlings on 70 nM lactofen ([1]; transformation set 2, 1276 seeds plated): 3 | Calculated Number of Germinated Seedlings per 1000 Seeds for both rates of Lactofen ([1]; transformation set 3): 2 | Number of Germinated Seedlings on 70 nM lactofen ([1]; transformation set 3, 980 seeds plated): 3 | Number of Germinated Seedlings on 125 nM Lactofen ([1]; transformation set 3, 1664 seeds plated): 1 | Calculated Number of Germinated Seedlings per 1000 Seeds for both rates of Lactofen ([2]; transformation set 4-390): 9 | Number of Germinated Seedlings on 125 nM Lactofen ([2]; transformation set 4-390, 1160 seeds plated): 6 | Number of Germinated Seedlings on 70 nM lactofen ([2]; transformation set 4-390, 1176 seeds plated): 14 | Calculated Number of Germinated Seedlings per 1000 Seeds for both rates of Lactofen ([2]; transformation set 4-414): 5 | Number of Germinated Seedlings on 125 nM Lactofen ([2]; transformation set 4-414, 880 seeds plated): 2 | Number of Germinated Seedlings on 70 nM lactofen ([2]; transformation set 4-414, 1036 seeds plated): 7 | Calculated Number of Germinated Seedlings per 1000 Seeds for both rates of Lactofen ([3]; transformation set 4-291): 0 | Number of Germinated Seedlings on 70 nM lactofen ([3]; transformation set 4-291, 500 seeds plated): 0 | Number of Germinated Seedlings on 125 nM Lactofen ([3]; transformation set 4-291, 680 seeds plated): 0 | Calculated Number of Germinated Seedlings per 1000 Seeds for both rates of Lactofen ([3]; transformation set 5): 1 | Number of Germinated Seedlings on 70 nM lactofen ([3]; transformation set 5, 460 seeds plated): 1 | Number of Germinated Seedlings on 125 nM Lactofen ([3]; transformation set 5, 764 seeds plated): 0 | Calculated Number of Germinated Seedlings per 1000 Seeds for both rates of Lactofen [4]: 0 | Number of Germinated Seedlings on 125 nM Lactofen ([4]; 600 seeds plated): 0 | Number of Germinated Seedlings on 70 nM lactofen ([4]; 884 seeds plated, six days): 0 | GR50 (growth reduction by 50%) S ([5]; 10 DAT): 0.2 g ai ha^−1 | GR50 (growth reduction by 50%) S ([5]; 15 DAT): 0.4 g ai ha^−1

O=C(O)c1cc(Oc2ccc(C(F)(F)F)cc2Cl)ccc1[N+](=O)[O-] [Acifluorfen, 5-{2-chloro-4-(trifluoromethyl)phenoxy}-2-nitrobezoic acid]
GR50 (growth reduction by 50%) S ([5]; 10 DAT): 1.6 g ai ha^−1

CCc1cnc(C2=NC(C)(C(C)C)C(=O)N2)c(C(=O)O)c1 (centres unmarked) [Imazethapyr]
Number of Germinated Seedlings on Imazethapyr ([1]; transformation set 1, 100 nM Pursuit): 9 | Number of Germinated Seedlings on Imazethapyr ([1]; transformation set 2, 100 nM Pursuit): 9 | Number of Germinated Seedlings on Imazethapyr ([1]; transformation set 3, 100 nM Pursuit): 6 | Number of Germinated Seedlings on Imazethapyr ([2]; transformation set 4-390, 100 nM Pursuit): 10 | Number of Germinated Seedlings on Imazethapyr ([2]; transformation set 4-414, 100 nM Pursuit): 11 | Number of Germinated Seedlings on Imazethapyr ([3]; transformation set 4-291, 100 nM Pursuit): 4 | Number of Germinated Seedlings on Imazethapyr ([3]; transformation set 5, 100 nM Pursuit): 12 | Number of Germinated Seedlings on Imazethapyr ([4]; 100 nM Pursuit, approximately 1000 seeds): 0
